Test results as given in article PMC6148290, “Endogenous metabolites of vitamin E limit inflammation by targeting 5-lipoxygenase” (Nature Communications, 2018).

Key:
[1] = molecular target: T1, 5-LO (Homo sapiens, UniProt P09917); experiment: 5-LO product formation in activated PMNL; assay type: cell-based; set-up: Freshly isolated PMNL (1 × 10^7); endogenous in cells; host or cells: human PMNL freshly isolated from leukocyte concentrates
T1 sequence (P09917 1-674): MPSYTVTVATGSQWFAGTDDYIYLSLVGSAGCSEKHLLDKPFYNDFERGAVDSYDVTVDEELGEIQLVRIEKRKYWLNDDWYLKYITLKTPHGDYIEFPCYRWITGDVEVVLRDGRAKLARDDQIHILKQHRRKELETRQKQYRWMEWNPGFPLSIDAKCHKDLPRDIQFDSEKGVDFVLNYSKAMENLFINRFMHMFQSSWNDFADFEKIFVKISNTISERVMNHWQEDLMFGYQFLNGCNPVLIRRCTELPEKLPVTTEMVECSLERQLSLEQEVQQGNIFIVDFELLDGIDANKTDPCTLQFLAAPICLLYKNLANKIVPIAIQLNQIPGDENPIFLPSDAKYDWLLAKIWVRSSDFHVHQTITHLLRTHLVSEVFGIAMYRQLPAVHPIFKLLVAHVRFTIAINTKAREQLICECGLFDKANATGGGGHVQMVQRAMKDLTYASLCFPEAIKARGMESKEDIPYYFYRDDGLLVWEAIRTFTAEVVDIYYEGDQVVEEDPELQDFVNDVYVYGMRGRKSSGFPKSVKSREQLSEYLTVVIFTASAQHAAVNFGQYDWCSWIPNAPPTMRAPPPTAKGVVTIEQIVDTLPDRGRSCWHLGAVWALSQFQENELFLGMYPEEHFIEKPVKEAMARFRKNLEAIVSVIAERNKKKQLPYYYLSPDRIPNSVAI
Text: Human PMNL, monocytes, PBMC, and platelets were freshly isolated from leukocyte concentrates. The protocols for experiments with human blood and blood cells were approved by the ethical commission of the Friedrich-Schiller-University Jena. […] PMNL were recovered from the pellet after hypotonic lysis of erythrocytes. Platelets were obtained from the supernatant and washed with PBS pH 5.9/0.9% NaCl (1:1). […]

[2] = test system: OVA-sensitized mice; experiment: Airway hyper-reactivity in OVA-sensitized mice; assay type: in vivo, mouse; settings: 10 mg/kg i.p. at days 0 and 7; day 21
Description: BALB/c mice were sensitized to OVA, and bronchial reactivity and pulmonary LTC4 levels were measured. On days 0 and 7, α-T-13′-COOH (4a; 10 mg/kg, i.p.) or vehicle (4% DMSO in saline; 0.5 ml) were administered 30 min before injection of OVA (100 µg; Sigma Aldrich) which was adsorbed to aluminum hydroxide gel (3.3 mg; Sigma Aldrich). Mice were sacrificed on day 21, and bronchi were collected. Bronchial rings of 1–2 mm length were cut and placed in organ baths mounted to isometric force transducers (Type 7006, AD Instruments, Ugo Basile, Comerio, Italy) and connected to a Powerlab 800 (AD Instruments). Rings were initially stretched until a resting tension of 0.5 g was reached and allowed to equilibrate for at least 30 min. In each experiment, bronchial rings were challenged with carbachol (10^−6 M) until the response was reproducible. Bronchial reactivity was then assessed from a cumulative concentration–response curve to carbachol (1 × 10^−8 − 3 × 10^−5 M). To determine pulmonary LTC4 levels, lungs were isolated and homogenized in PBS pH 7.4 (100 mg tissue/ml) prior to detection of LTC4 by enzyme immunoassay (Cayman Chemicals).

For `Cc1c(C)c2c(c(C)c1O)CC[C@@](C)(CCCC(C)CCCC(C)CCCC(C)C(=O)O)O2` (stereo partly drawn) [4a, 13-((2R)-6-hydroxy-2,5,7,8-tetramethylchroman-2-yl)-2,6,10-trimethyltridecanoic acid], the IC50 [1] was 80 nM, the “OVA-induced bronchial hyper-reactivity to carbachol” value [2] was “significantly inhibited” and the “pulmonary LTC4 levels” value [2] was “lowered pulmonary LTC4 to basal levels”.
